The text below walks through data of US20210275624A1, “TREATMENTS FOR IMPROVING OR LESSENING IMPAIRMENT OF MITOCHONDRIAL FUNCTION” (priority 2020, published 2021).

Data set [1] has as its system human RPE cells. In words: WST assay (mitochondrial dehydrogenase activity / cell viability). The format is cell-based. Conditions: 2.5 hours. Here is the method:
Human donor RPE cells were seeded on collagen-coated 96-well plates, 24-well plates with or without coverslips, 6-well plates (Corning-Costar Incorporated, Corning, N.Y., USA). Except for the Seahorse assay, on day 6 after plating, cells were washed twice with serum-free and phenol red-free MEM (SF-MEM), treated with HQ at a various concentrations in the presence or absence of RSG (0.4 mM) in SF-MEM for various times at 37° C. RSG co-treatment refers to the condition in which cells were treated with RSG in the presence of HQ. Control refers to the condition in which cells were not treated. RPE cells in triplicate wells of a 96-well plate were treated with HQ (150 μM) for 2.5 hours in the presence or absence of RSG (0.4 mM). The medium was removed and cells were incubated with WST-1 solution for 30 minutes at 37° C. A colorimetric assay was performed based on the cleavage of the tetrazolium salt WST-1 by mitochondrial dehydrogenases in viable cells. The plate was read on a spectrophotometer at 440 nm with a reference wavelength at 690 nm.

In data set [2] the test system is human RPE cells. In words: Determination of Δψm (JC-1 dye). The data set is classed as cell-based. Here is the method: Human donor RPE cells were seeded on collagen-coated 96-well plates, 24-well plates with or without coverslips, 6-well plates (Corning-Costar Incorporated, Corning, N.Y., USA). Except for the Seahorse assay, on day 6 after plating, cells were washed twice with serum-free and phenol red-free MEM (SF-MEM), treated with HQ at a various concentrations in the presence or absence of RSG (0.4 mM) in SF-MEM for various times at 37° C. RSG co-treatment refers to the condition in which cells were treated with RSG in the presence of HQ. Control refers to the condition in which cells were not treated. RPE cells in triplicate wells of 96-well black plates with clear bottoms were washed with SF-MEM, loaded with 10 μM JC-1 dye in SF-MEM for 30 minutes at 37° C. and then washed twice. Cells were then treated with HQ (160 μM) with or without RSG (0.4 mM). A fluorescence plate reader was used to measure the fluorescence at various times to quantify green JC-1 monomer (490-nm excitation, 522-nm emission) and red JC-1 aggregates (535-nm excitation, 590-nm emission).

Data set [3] relates to human RPE cells. In words: Determination of ROS (CM-H2DCFDA fluorescence). Conditions: HQ 160 μM vs control. The format is cell-based. Here is the method:
Human donor RPE cells were seeded on collagen-coated 96-well plates, 24-well plates with or without coverslips, 6-well plates (Corning-Costar Incorporated, Corning, N.Y., USA). Except for the Seahorse assay, on day 6 after plating, cells were washed twice with serum-free and phenol red-free MEM (SF-MEM), treated with HQ at a various concentrations in the presence or absence of RSG (0.4 mM) in SF-MEM for various times at 37° C. RSG co-treatment refers to the condition in which cells were treated with RSG in the presence of HQ. Control refers to the condition in which cells were not treated. RPE cells in triplicate wells of a 96-well black plates with clear bottoms were washed with SF-MEM, loaded with 20 μM CM-H2DCFDA in SF-MEM for 30 minutes at 37° C. and then washed twice. Cells were then treated with HQ (160 μM) in the presence or absence of RSG (0.4 mM). Fluorescence was measured at various times with a fluorescence plate reader (490 nm excitation, 522 nm emission).

Data set [4] has as its system human RPE cells. The format is cell-based. Conditions: RSG 0.4 mM co-treatment with HQ 175 μM, 1.5 hours, vs HQ-treated cells. Here is the method: RPE cells were seeded in triplicate wells of collagen-coated XF 24-well plates and grown for 24 hours. RPE cells that had just reached confluence were washed with SF-MEM and treated for 1.5 hours with HQ (175 μM) with or without RSG (0.4 mM). Media were removed and cells were washed with XF base medium containing 1 mM sodium pyruvate, 2 mM glutamine and 8 mM glucose, pH 7.4. The cells were incubated for 1 hour at 37° C. in a C02-free incubator. Oxygen consumption rate (OCR) was measured by Seahorse XFe24 flux analyzer under basal conditions followed by the sequential addition of 1 μM oligomycin, 1 μM tri-fluorocarbonylcyanide phenylhydrazone (FCCP), and 1 μM rotenone and antimycin A. Maximal OCR was the difference in OCR between FCCP-induced respiration and OCR after injection of antimycin A. Mitochondrial spare respiratory capacity was the difference between maximal respiration and basal OCR. Media were removed and the total proteins were extracted for BCA protein assay after OCR measurements. OCRs were normalized to total protein content.

A further data set deals with dog heart failure model. In words: Dog heart failure model (coronary microembolization), ventriculographic and hemodynamic measurements. The format is in vivo. As to conditions: for Left Ventricle Ejection Fraction: n = 3, pretreatment 32; for Cardiac Output, Δ vs pretreatment / Left Ventricle Ejection Fraction, Δ vs pretreatment / Stroke Volume, Δ vs pretreatment / Cardiac Output / Mean Pulmonary Artery Wedge Pressure / L V End Diastolic Pressure / Mean Pulmonary Artery Pressure / Stroke Volume / L V End Systolic Volume / L V End Diastolic Volume / Mean Aortic Pressure / Heart Rate / Systemic Vascular Resistance / L V Peak + dP/dt: post 3rd inj.; for Cardiac Output: pretreatment 1.81; for Mean Pulmonary Artery Wedge Pressure: pretreatment 9.3; for L V End Diastolic Pressure: pretreatment 13; for Mean Pulmonary Artery Pressure: pretreatment 17; for Stroke Volume: pretreatment 21; for L V End Systolic Volume: pretreatment 43; for L V End Diastolic Volume: pretreatment 64; for Mean Aortic Pressure: pretreatment 75; for Heart Rate: pretreatment 88; for Systemic Vascular Resistance: pretreatment 3391. Here is the method:
An initial study was conducted to assess the effects of Risuteganib administered intravenously at doses of 1.0 mg/kg and 5.0 mg/kg in a dog heart failure model. The subject animals underwent coronary microembolization to induce heart failure as described in Sabbah, H., et al.; Chronic Therapy with Elamipretide (MTP-131), a Novel Mitochondria-Targeting Peptide, Improves Left Ventricular and Mitochondrial Function in Dogs with Advanced Heart Failure; Circ Heart Fail. 2016 February; 9(2): e002206. doi:10.1161/CIRCHEARTFAILURE.115.002206.
Three (3) dogs were received 1.0 mg/kg Risuteganib every 2 weeks for 6 weeks. After an intervening period of approximately one week, the same three (3) dogs then received 5.0 mg/kg Risuteganib every 2 weeks for 6 additional weeks. Ventriculographic and hemodynamic measurements were made prior to the first intravenous dose of Risuteganib, after the third biweekly 1.0 mg/kg intravenous dose of Risuteganib and again after the third biweekly 5.0 mg/kg intravenous dose of Risuteganib.

The mark [5] stands for this setting: 1.0 mg/kg IV q 2 weeks for 6 weeks.
Where [6] appears, read: 5.0 mg/kg IV q 2 weeks for 6 weeks.

Square brackets hold non-standard residues; d marks the D form. Peptide text beside a SMILES is read from it. Cya = N[C@@H](CS(=O)(=O)O)C(=O)O

Consider `Oc1ccc(O)cc1` [HQ, hydroquinone, reference compound], for which the “cell viability (WST-1)” value in the data set with human RPE cells [1] (HQ 150 μM) is on record as “significantly decreased cell viability”. Further, the Δψm entry with human RPE cells [2] (HQ 160 μM vs control) is reported as “significantly decreased”. Also, the ROS production entry in the data set on human RPE cells [3] is “significantly increased”.
`C[C@@H](O)[C@H](NC(=O)[C@H](CS(=O)(=O)O)NC(=O)CNC(=O)[C@H](CCCNC(=N)N)NC(=O)CN)C(=O)N1CCC[C@H]1C(=O)O` [Risuteganib, Glycyl-L-arginylglycyl-3-sulfo-L-alanyl-L-threonyl-L-proline] (H-GRG[Cya]TP-OH): the “cell viability (WST-1, mitochondrial dehydrogenase activity)” value in the data set on human RPE cells [1] (RSG 0.4 mM co-treatment with HQ 150 μM, vs HQ alone) was “significantly increased cell viability”. Further, in the data set on human RPE cells [4], the ATP production result was “significantly increased” and the spare respiratory capacity result was “significantly increased”. Further, the “Left Ventricle Ejection Fraction” value in the data set on dog heart failure model (1.0 mg/kg IV q 2 weeks for 6 weeks, post 3rd 1.0 mg/kg IV inj.) amounted to 37%. In the data set with dog heart failure model (setting [5]), the “Cardiac Output, Δ vs pretreatment” value is listed as “Δ = +0.14 L/min”; the “Left Ventricle Ejection Fraction, Δ vs pretreatment” value is “Δ = +5%”; the “Stroke Volume, Δ vs pretreatment” value is given as “Δ = +2 mL”; the “Cardiac Output” value was 1.95 L/min. In addition, in the data set on dog heart failure model (setting [5]), the “Mean Pulmonary Artery Wedge Pressure” value was 9.0 mmHg, the “L V End Diastolic Pressure” value stood at 13 mmHg, the “Mean Pulmonary Artery Pressure” value was 16 mmHg and the “Stroke Volume” value is given as 23 mL. Moreover, in the data set with dog heart failure model (setting [5]), the “L V End Systolic Volume” value was found to be 0.04 L, the “L V End Diastolic Volume” value stood at 0.063 L, the “Mean Aortic Pressure” value was 71 mmHg and the “Heart Rate” value turned out to be 86 beats/min. Besides, the “Systemic Vascular Resistance” value with dog heart failure model (setting [5]) is listed as 2954 dynes-sec-cm-5. The “Left Ventricle Ejection Fraction” value with dog heart failure model (5.0 mg/kg IV q 2 weeks for 6 weeks, post 3rd 5.0 mg/kg IV inj.) is on record as 41%. Further, in the data set with dog heart failure model (setting [6]), the “Cardiac Output, Δ vs pretreatment” value is given as “Δ = +0.57 L/min”; the “Left Ventricle Ejection Fraction, Δ vs pretreatment” value was “Δ = +9%”; the “Stroke Volume, Δ vs pretreatment” value is “Δ = +5 mL”; the “Cardiac Output” value is given as 2.38 L/min. Moreover, in the data set on dog heart failure model (setting [6]), the “Mean Pulmonary Artery Wedge Pressure” value is reported as 9.0 mmHg, the “L V End Diastolic Pressure” value stood at 13 mmHg, the “Mean Pulmonary Artery Pressure” value worked out at 16 mmHg and the “Stroke Volume” value amounted to 27 mL. Besides, in the data set with dog heart failure model (setting [6]), the “L V End Systolic Volume” value came out at 0.039 L, the “L V End Diastolic Volume” value was determined as 0.067 L, the “Mean Aortic Pressure” value was 84 mmHg and the “Heart Rate” value was found to be 87 beats/min. For the same molecule, in the data set on dog heart failure model (setting [6]), the “Systemic Vascular Resistance” value came to 2924 dynes-sec-cm-5. In addition, in the data set with dog heart failure model (first line so headed (r26), 1.0 mg/kg IV q 2 weeks for 6 weeks, pretreatment 1241), the “L V Peak + dP/dt” value is 1267 mmHg/sec. Besides, the “L V Peak + dP/dt” value in the data set on dog heart failure model (first line so headed (r26), 5.0 mg/kg IV q 2 weeks for 6 weeks, pretreatment 1241) came out at 1288 mmHg/sec. Also, the cardiac function entry with dog heart failure model (heart failure dogs, 1.0 mg/kg and 5.0 mg/kg intravenously) is listed as “improved”. Also, the “L V Peak + dP/dt” value in the data set on dog heart failure model (second line so headed (r29), 1.0 mg/kg IV q 2 weeks for 6 weeks, pretreatment 1509) stood at 1325 mmHg/sec. Besides, the “L V Peak + dP/dt” value in the data set on dog heart failure model (second line so headed (r29), 5.0 mg/kg IV q 2 weeks for 6 weeks, pretreatment 1509) came out at 1338 mmHg/sec. For the same molecule, the “Δψm (mitochondrial membrane potential)” value in the data set on human RPE cells [2] (RSG 0.4 mM co-treatment with HQ 160 μM) is recorded as “significantly improved HQ-mediated reduction in Δψm”.
